Measurements as given in ChEMBL document CHEMBL1201862, “PubChem BioAssay data set” (2004).
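Results reflect a 48-hour exposure of cells in 96-well plates to compound at five concentrations. GI50 = concentration required for 50% inhibition of growth.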 Active and inactive are the calls of the source. Rule as the data show it: active = GI50 up to about 1.1 µM and inactive = higher.

Columns and labels:
Assay in all cases: DTP human tumour cell line panel, 48 h
MDA-MB-435 = test system: MDA-MB-435
SF-539 = test system: SF-539
SK-MEL-2 = test system: SK-MEL-2
BT-549 = test system: BT-549
COLO 205 = test system: COLO 205
SN12C = test system: SN12C
MDA-N = test system: MDA-N
NCI/ADR-RES = test system: NCI/ADR-RES
K562 = test system: K562
NCI-H460 = test system: NCI-H460
HCT-116 = test system: HCT-116
OVCAR-8 = test system: OVCAR-8
HCC 2998 = test system: HCC 2998
RXF 393 = test system: RXF 393
OVCAR-4 = test system: OVCAR-4
MCF7 = test system: MCF7
SK-OV-3 = test system: SK-OV-3
SR = test system: SR
786-0 = test system: 786-0
Malme-3M = test system: Malme-3M

Measured: GI50

CCCCN(CCCC)c1ccc(/N=N/c2ccc(S(=O)(=O)O)cc2)cc1
inactive: MDA-MB-435 57.9 µM | SF-539 16.7 µM | SK-MEL-2 51.1 µM | BT-549 35.2 µM | COLO 205 18.7 µM | SN12C 25.4 µM | MDA-N 52.2 µM | NCI/ADR-RES 24.4 µM | K562 26.9 µM | NCI-H460 34 µM | HCT-116 15.6 µM | OVCAR-8 22 µM | HCC 2998 24 µM | RXF 393 14.4 µM | OVCAR-4 17.8 µM | MCF7 21.9 µM | SK-OV-3 25.5 µM

COc1ccc(NC(=S)Nc2cc(C)ccn2)cc1
inactive: MDA-MB-435 > 100 µM | SR > 100 µM | SF-539 > 100 µM | SK-MEL-2 > 100 µM | BT-549 > 100 µM | COLO 205 > 100 µM | NCI/ADR-RES 28.6 µM | K562 > 100 µM | NCI-H460 > 100 µM | HCT-116 > 100 µM | OVCAR-8 > 100 µM | 786-0 > 100 µM | HCC 2998 > 100 µM | RXF 393 > 100 µM | OVCAR-4 > 100 µM | MCF7 > 100 µM

CC1=CC(C2/C(=N/O)C=C(C)CC2(C)C)C(O)C(C)(C)C1 (stereo unspecified)
inactive: MDA-MB-435 16.4 µM | SF-539 24 µM | SK-MEL-2 16 µM | BT-549 17.6 µM | COLO 205 17.1 µM | SN12C 18.4 µM | MDA-N 17 µM | NCI/ADR-RES 16.3 µM | K562 14.2 µM | NCI-H460 21.3 µM | HCT-116 15.7 µM | OVCAR-8 17.5 µM | 786-0 17.4 µM | HCC 2998 14.1 µM | RXF 393 15.3 µM | OVCAR-4 15 µM | MCF7 15.3 µM | SK-OV-3 17.9 µM

CC1=C(C(=O)NC(C)(C)C)CC(C(=O)NC(C)(C)C)C(C)N1 (stereo unspecified)
inactive: MDA-MB-435 93.8 µM | SF-539 > 100 µM | SK-MEL-2 > 100 µM | BT-549 > 100 µM | COLO 205 > 100 µM | SN12C > 100 µM | MDA-N > 100 µM | NCI/ADR-RES > 100 µM | K562 > 100 µM | NCI-H460 > 100 µM | HCT-116 > 100 µM | OVCAR-8 > 100 µM | 786-0 > 100 µM | HCC 2998 > 100 µM | RXF 393 > 100 µM | OVCAR-4 > 100 µM | MCF7 > 100 µM | SK-OV-3 > 100 µM

CCN(CC)CCN1C(=O)C(=O)N(c2cccc3ccccc23)C1=O
inactive: MDA-MB-435 > 10 µM | SR > 10 µM | SF-539 > 10 µM | SK-MEL-2 > 10 µM | COLO 205 > 10 µM | SN12C > 10 µM | MDA-N > 10 µM | NCI/ADR-RES > 10 µM | Malme-3M > 10 µM | K562 > 10 µM | NCI-H460 > 10 µM | HCT-116 > 10 µM | OVCAR-8 > 10 µM | HCC 2998 > 10 µM | RXF 393 > 10 µM | OVCAR-4 > 10 µM | MCF7 > 10 µM | SK-OV-3 > 10 µM

c1ccc2c(c1)Sc1ccccc1N2CC1CN2CCC1CC2 (stereo unspecified) [MEQUITAZINE]
inactive: MDA-MB-435 2.8 µM | SR 2.58 µM | SF-539 8.32 µM | SK-MEL-2 3.32 µM | BT-549 14.5 µM | COLO 205 1.69 µM | SN12C 11.3 µM | NCI/ADR-RES 11.1 µM | Malme-3M 1.94 µM | K562 2.11 µM | NCI-H460 3.26 µM | HCT-116 3.52 µM | OVCAR-8 13.4 µM | 786-0 6.24 µM | HCC 2998 1.29 µM | RXF 393 2.31 µM | OVCAR-4 6.5 µM | MCF7 3.4 µM | SK-OV-3 12.5 µM
